Drawing on patent US20110294766A1, “16 Alpha, 17 Alpha-Acetal Glucocorticosteroidal Derivatives and their Use” (AstraZeneca AB, priority 2008, published 2011), this text covers IC50 for 13 compounds.

For this assay, the target named is T1, recombinant human GR (Homo sapiens, UniProt P04150).
T1 construct: purchased Panvera/Invitrogen P2812 (kit P2893)
T1 sequence (P04150 1-777): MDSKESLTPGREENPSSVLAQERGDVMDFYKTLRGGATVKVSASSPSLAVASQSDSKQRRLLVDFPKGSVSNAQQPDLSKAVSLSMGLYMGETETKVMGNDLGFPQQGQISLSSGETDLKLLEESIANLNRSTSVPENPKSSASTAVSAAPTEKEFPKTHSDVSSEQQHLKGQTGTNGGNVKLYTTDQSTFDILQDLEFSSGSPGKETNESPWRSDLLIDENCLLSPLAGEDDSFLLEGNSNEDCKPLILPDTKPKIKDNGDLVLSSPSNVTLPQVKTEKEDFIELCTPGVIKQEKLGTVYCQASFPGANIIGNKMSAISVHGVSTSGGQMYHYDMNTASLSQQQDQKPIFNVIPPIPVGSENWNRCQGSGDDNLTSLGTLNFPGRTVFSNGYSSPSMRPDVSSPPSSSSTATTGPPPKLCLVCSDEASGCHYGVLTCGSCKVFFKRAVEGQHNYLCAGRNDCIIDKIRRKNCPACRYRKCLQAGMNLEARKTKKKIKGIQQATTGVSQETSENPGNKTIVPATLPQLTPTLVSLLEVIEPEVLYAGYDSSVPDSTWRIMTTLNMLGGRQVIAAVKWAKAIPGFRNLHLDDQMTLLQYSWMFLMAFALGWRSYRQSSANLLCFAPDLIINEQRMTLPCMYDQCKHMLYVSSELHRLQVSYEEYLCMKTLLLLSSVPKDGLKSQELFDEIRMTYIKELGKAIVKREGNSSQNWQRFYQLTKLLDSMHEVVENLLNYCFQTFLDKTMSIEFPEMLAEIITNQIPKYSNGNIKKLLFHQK
Put plainly: Human Glucocorticoid Receptor (GR) Assay (fluorescence polarization, Panvera/Invitrogen kit). Particulars: GS Red tracer, 2 hours at room temperature, 100% control 10 μM Dexamethasone, read-out: Inhibition of GR binding, IC50. The procedure: Human Glucocorticoid Receptor (GR) Assay The assay is based on a commercial kit from Panvera/Invitrogen (Part number P2893). The assay technology is fluorescence polarization. The kit utilises recombinant human GR (Panvera, Part number P2812), a Fluoromone™ labelled tracer (GS Red, Panvera, Part number P2894) and a Stabilizing Peptide 10× (Panvera, Part number P2815). The GR and Stabilizing Peptide reagents are stored at −70° C. while the GS Red is stored at −20° C. Also included in the kit are 1M DTT (Panvera, Part number P2325, stored at −20° C.) and GR Screening buffer 10× (Panvera, Part number P2814, stored at −70° C. initially but once thawed stored at room temperature). Avoid repeated freeze/thaws for all reagents. The GR Screening buffer 10× comprises 100 mM potassium phosphate, 200 mM sodium molybdate, 1 mM EDTA and 20% DMSO. Test compounds (1 μL) and controls (1 μL) in 100% DMSO were added to black polystyrene 384-well plates (Greiner low volume black flat-bottom, part number 784076). 0% control was 100% DMSO and 100% control was 10 μM Dexamethasone. Background solution (8 μL; assay buffer 10×, Stabilizing Peptide, DTT and ice cold MQ water) was added to the background wells. GS Red solution (7 μL; assay buffer 10×, Stabilizing Peptide, DTT, GS Red and ice cold water) was added to all wells except background wells. GR solution (7 μL; assay buffer 10×, Stabilizing Peptide, DTT, GR and ice cold water) was added to all wells. The plate was sealed and incubated in a dark at room temperature for 2 hours. The plate was read in an Analyst plate reader (LJL Biosystems/Molecular Devices Corporation) or other similar plate reader capable of recording fluorescence polarization (excitation wavelength 530 nm, emission wavelength 590 nm and a dichroic mirror at 561 nm).
`C[C@]12C=CC(=O)C=C1[C@@H](F)C[C@H]1[C@@H]3C[C@H]4OC(c5ccc(Cl)o5)O[C@@]4(C(=O)SCF)[C@@]3(C)C[C@H](O)[C@@]12F` (stereo partly drawn) [Example 11, S-(Fluoromethyl)(4aS,4bR,5S,6aS,6bS,9aR,10aS,10bS,12S)-8-(5-chloro-2-furyl)-4b,12-difluoro-5-hydroxy-4a,6a-dimethyl-2-oxo-2,4a,4b,5,6,6a,9a,10,10a,10b,11,12-dodecahydro-6bH-naphtho[2′,1′:4,5]indeno[1,2-d][1,3]dioxole-6b-carbothioate]: the IC50 was 0.59 nM.

`C[C@]12C=CC(=O)C=C1[C@@H](F)C[C@H]1[C@@H]3C[C@H]4OC(c5cccc6c5OCC6)O[C@@]4(C(=O)SCF)[C@@]3(C)C[C@H](O)[C@@]12F` (stereo partly drawn) [Example 32, S-(Fluoromethyl)(4aS,4bR,5S,6aS,6bS,9aR,10aS,10bS,12S)-8-(2,3-dihydro-1-benzofuran-7-yl)-4b,12-difluoro-5-hydroxy-4a,6a-dimethyl-2-oxo-2,4a,4b,5,6,6a,9a,10,10a,10b,11,12-dodecahydro-6bH-naphtho[2′,1′:4,5]indeno[1,2-d][1,3]dioxole-6b-carbothioate]: the IC50 turned out to be 1 nM.

`COc1ccc(C2O[C@@H]3C[C@H]4[C@@H]5CCC6=CC(=O)C=C[C@]6(C)[C@H]5[C@@H](O)C[C@]4(C)[C@]3(C(=O)SCC#N)O2)c(F)c1` (stereo partly drawn) [Example 37, S-(Cyanomethyl)(4aR,4bS,5S,6aS,6bS,9aR,10aS,10bS)-8-(2-fluoro-4-methoxyphenyl)-5-hydroxy-4a,6a-dimethyl-2-oxo-2,4a,4b,5,6,6a,9a,10,10a,10b,11,12-dodecahydro-6bH-naphtho[2′,1′:4,5]indeno[1,2-d][1,3]dioxole-6b-carbothioate]: the IC50 is 1.4 nM.

Consider `CSC(=O)[C@@]12OC(c3ccc(F)cc3F)O[C@@H]1C[C@H]1[C@@H]3C[C@H](F)C4=CC(=O)C=C[C@]4(C)[C@@]3(F)[C@@H](O)C[C@@]12C` (stereo partly drawn) [Example 5, S-Methyl (4aS,4bR,5S,6aS,6bS,9aR,10aS,10bS,12S)-8-(2,4-difluorophenyl)-4b,12-difluoro-5-hydroxy-4a,6a-dimethyl-2-oxo-2,4a,4b,5,6,6a,9a,10,10a,10b,11,12-dodecahydro-6bH-naphtho[2′,1′:4,5]indeno[1,2-d][1,3]dioxole-6b-carbothioate], for which the IC50 came out at 1.1 nM.

With `C[C@]12C=CC(=O)C=C1[C@@H](F)C[C@H]1[C@@H]3C[C@H]4OC(c5ccc(F)cc5F)O[C@@]4(C(=O)SCF)[C@@]3(C)C[C@H](O)[C@@]12F` (stereo partly drawn) [Example 6, S-(Fluoromethyl)(4aS,4bR,5S,6aS,6bS,9aR,10aS,10bS,12S)-8-(2,4-difluorophenyl)-4b,12-difluoro-5-hydroxy-4a,6a-dimethyl-2-oxo-2,4a,4b,5,6,6a,9a,10,10a,10b,11,12-dodecahydro-6bH-naphtho[2′,1′:4,5]indeno[1,2-d][1,3]dioxole-6b-carbothioate], the half-maximal inhibitory concentration (IC50) stood at 1.2 nM.

As to `Cc1ccc([C@H]2O[C@@H]3C[C@H]4[C@@H]5C[C@H](F)C6=CC(=O)C=C[C@]6(C)[C@@]5(F)[C@@H](O)C[C@]4(C)[C@]3(C(=O)SCF)O2)o1` [Example 7, S-(Fluoromethyl)(4aS,4bR,5S,6aS,6bS,8S,9aR,10aS,10bS,12S)-4b,12-difluoro-5-hydroxy-4a,6a-dimethyl-8-(5-methyl-2-furyl)-2-oxo-2,4a,4b,5,6,6a,9a,10,10a,10b,11,12-dodecahydro-6bH-naphtho[2′,1′:4,5]indeno[1,2-d][1,3]dioxole-6b-carbothioate], the IC50 came out at 1 nM.

Regarding `C[C@]12C=CC(=O)C=C1CC[C@@H]1[C@@H]2[C@@H](O)C[C@@]2(C)[C@H]1C[C@H]1OC(c3ccc(C(F)(F)F)cc3)O[C@]12C(=O)SCC#N` (stereo partly drawn) [Example 39, S-(Cyanomethyl)(4aR,4bS,5S,6aS,6bS,9aR,10aS,10bS)-5-hydroxy-4a,6a-dimethyl-2-oxo-8-[4-(trifluoromethyl)phenyl]-2,4a,4b,5,6,6a,9a,10,10a,10,11,12-dodecahydro-6bH-naphtho[2′,1′:4,5]indeno[1,2-d][1,3]dioxole-6b-carbothioate], the IC50 was 2.8 nM.

As for `C[C@]12C=CC(=O)C=C1[C@@H](F)C[C@H]1[C@@H]3C[C@H]4OC(c5ccc(F)cc5)O[C@@]4(C(=O)SCC#N)[C@@]3(C)C[C@H](O)[C@@]12F` (stereo partly drawn) [Example 26, S-(Cyanomethyl)(4aS,4bR,5S,6aS,6bS,9aR,10aS,10bS,12S)-4b,12-difluoro-8-(4-fluorophenyl)-5-hydroxy-4a,6a-dimethyl-2-oxo-2,4a,4b,5,6,6a,9a,10,10a,10b,11,12-dodecahydro-6bH-naphtho[2′,1′:4,5]indeno[1,2-d][1,3]dioxole-6b-carbothioate], the IC50 was determined as 1.1 nM.

On to `C[C@]12C=CC(=O)C=C1CC[C@@H]1[C@@H]2[C@@H](O)C[C@@]2(C)[C@H]1C[C@H]1OC(c3ccco3)O[C@]12C(=O)SCF` (stereo partly drawn) [Example 34, S-(Fluoromethyl)(4aR,4bS,5S,6aS,6bS,9aR,10aS,10bS)-8-furan-2-yl-5-hydroxy-4a,6a-dimethyl-2-oxo-2,4a,4b,5,6,6a,9a,10,10a,10b,11,12-dodecahydro-6bH-naphtho[2′,1′:4,5]indeno[1,2-d][1,3]dioxole-6b-carbothioate], for which the half-maximal inhibitory concentration (IC50) turned out to be 1 nM.

For `C[C@]12C=CC(=O)C=C1[C@@H](F)C[C@H]1[C@@H]3C[C@H]4OC(c5cccc(F)c5)O[C@@]4(C(=O)SCC#N)[C@@]3(C)C[C@H](O)[C@@]12F` (stereo partly drawn) [Example 23, S-(Cyanomethyl)(4aS,4bR,5S,6aS,6bS,9aR,10aS,10bS,12S)-4b,12-difluoro-8-(3-fluorophenyl)-5-hydroxy-4a,6a-dimethyl-2-oxo-2,4a,4b,5,6,6a,9a,10,10a,10b,11,12-dodecahydro-6bH-naphtho[2′,1′:4,5]indeno[1,2-d][1,3]dioxole-6b-carbothioate], the 50% inhibitory concentration (IC50) worked out at 0.99 nM.

With `C[C@]12C=CC(=O)C=C1[C@@H](F)C[C@H]1[C@@H]3C[C@H]4OC(c5ccc6ncccc6c5)O[C@@]4(C(=O)SCC#N)[C@@]3(C)C[C@H](O)[C@@]12F` (stereo partly drawn) [Example 16, S-(Cyanomethyl)(4aS,4bR,5S,6aS,6bS,9aR,10aS,10bS,12S)-4b,12-difluoro-5-hydroxy-4a,6a-dimethyl-2-oxo-8-quinolin-6-yl-2,4a,4b,5,6,6a,9a,10,10a,10b,11,12-dodecahydro-6bH-naphtho[2′,1′:4,5]indeno[1,2-d][1,3]dioxole-6b-carbothioate], the IC50 is 1.5 nM.

For the compound `C[C@]12C=CC(=O)C=C1[C@@H](F)C[C@H]1[C@@H]3C[C@H]4OC(c5ccc(C(F)(F)F)o5)O[C@@]4(C(=O)SCF)[C@@]3(C)C[C@H](O)[C@@]12F` (stereo partly drawn) [Example 14, S-(Fluoromethyl)(4aS,4bR,5S,6aS,6bS,9aR,10aS,10bS,12S)-4b,12-difluoro-5-hydroxy-4a,6a-dimethyl-2-oxo-8-[5-(trifluoromethyl)-2-furyl]-2,4a,4b,5,6,6a,9a,10,10a,10b,11,12-dodecahydro-6bH-naphtho[2′,1′:4,5]indeno[1,2-d][1,3]dioxole-6b-carbothioate], the IC50 is 1.2 nM.

As to `Cc1ccc(C2O[C@@H]3C[C@H]4[C@@H]5C[C@H](F)C6=CC(=O)C=C[C@]6(C)[C@@]5(F)[C@@H](O)C[C@]4(C)[C@]3(C(=O)SCC#N)O2)o1` (stereo partly drawn) [Example 10, S-(Cyanomethyl)(4aS,4bR,5S,6aS,6bS,9aR,10aS,10bS,12S)-4b,12-difluoro-5-hydroxy-4a,6a-dimethyl-8-(5-methyl-2-furyl)-2-oxo-2,4a,4b,5,6,6a,9a,10,10a,10b,11,12-dodecahydro-6bH-naphtho[2′,1′:4,5]indeno[1,2-d][1,3]dioxole-6b-carbothioate], the IC50 came to 1.1 nM.
